This note sets out measurements from PubChem BioAssay (NCI).

Some test systems named below: SK-MEL-2 melanoma; M14 melanoma; SK-MEL-28 melanoma; SK-OV-3 ovarian; LOX IMVI melanoma; NCI-H460 lung; KM12 colon; IGROV1 ovarian; OVCAR-8 ovarian; SNB-19 CNS; TK-10 renal.
Common to all, as to experiment: growth of human tumour cells (NCI), 48 h

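96-well plates; 48 h exposure; 5 concentrations. Endpoints by linear interpolation between flanking doses. Not reached: highest tested concentration assigned. GI50 marks 50% less growth. The concentration for full growth arrest is given as TGI.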 Where only a bound is given, the exact number is not on record here.

For the compound `CC1OC(OC2C[C@](O)(C(=O)CBr)Cc3c(O)c4c(c(O)c32)C(=O)c2ccccc2C4=O)C(F)C(O)C1O` (stereo not given in full), the TGI with SK-MEL-2 melanoma was 79.5 µM; in the assay with M14 melanoma it was 26.1 µM; with SK-MEL-28 melanoma it was > 66.1 µM; with SK-OV-3 ovarian, > 100 µM; with LOX IMVI melanoma it was 35.8 µM; in the assay on NCI-H460 lung, 48.6 µM. Further, the TGI is > 84.1 µM in the assay on KM12 colon; 60.9 µM with IGROV1 ovarian; > 100 µM in the assay on OVCAR-8 ovarian; > 70.5 µM with SNB-19 CNS; > 87.4 µM in the assay with TK-10 renal.
Consider `CCOC(=O)/C=C/c1c[nH]c(=O)[nH]c1=O`, for which the TGI is > 75 µM in the assay on SK-MEL-2 melanoma; > 75 µM with SK-MEL-28 melanoma; > 61.2 µM in the assay on SK-OV-3 ovarian; > 75 µM with LOX IMVI melanoma; > 75 µM in the assay with NCI-H460 lung; > 75 µM with KM12 colon. For the same compound, the TGI in the assay with IGROV1 ovarian, in the assay with OVCAR-8 ovarian and with SNB-19 CNS was > 75 µM in each case.
`CCCCCCCCCC[N+](C)(C)C`: the GI50 in the assay on SK-MEL-2 melanoma was 2.41 µM; with M14 melanoma it was 1.74 µM; in the assay on SK-MEL-28 melanoma, 3.07 µM; in the assay with SK-OV-3 ovarian it was 2.57 µM; in the assay with LOX IMVI melanoma, 1.41 µM; in the assay on NCI-H460 lung, 1.73 µM. Also, the GI50 was 1.66 µM in the assay on IGROV1 ovarian, 1.83 µM with OVCAR-8 ovarian and 1.42 µM in the assay on TK-10 renal. Also, the TGI with SK-MEL-2 melanoma was 6.61 µM; in the assay on M14 melanoma, 5.83 µM; in the assay on SK-MEL-28 melanoma it was 12.2 µM; in the assay on SK-OV-3 ovarian it was 13 µM; with LOX IMVI melanoma it was 2.95 µM; in the assay on NCI-H460 lung, 3.84 µM. The TGI came to 3.2 µM with IGROV1 ovarian, 5.53 µM with OVCAR-8 ovarian and 3.27 µM with TK-10 renal.
In the case of `CCCCCCC(=O)c1ccc2ccccc2c1O`, the TGI is 67.5 µM with SK-MEL-2 melanoma; > 100 µM in the assay with M14 melanoma; > 100 µM with SK-MEL-28 melanoma; > 100 µM in the assay on SK-OV-3 ovarian; > 100 µM with LOX IMVI melanoma; > 100 µM in the assay on NCI-H460 lung. In addition, the TGI with KM12 colon, with IGROV1 ovarian, with OVCAR-8 ovarian, in the assay with SNB-19 CNS and in the assay on TK-10 renal was > 100 µM throughout.
In the case of `N[C@@H](Cc1ccc2oc3cc(=O)c4ccccc4c-3nc2c1)C(=O)O`, the TGI in the assay on M14 melanoma was 40.9 µM; in the assay on SK-MEL-28 melanoma, > 100 µM; with SK-OV-3 ovarian it was > 100 µM; in the assay on LOX IMVI melanoma, > 100 µM; with NCI-H460 lung it was > 100 µM; with KM12 colon it was > 100 µM. Also, the TGI is > 100 µM in the assay with IGROV1 ovarian, > 100 µM in the assay on OVCAR-8 ovarian, 77.6 µM in the assay with SNB-19 CNS and > 100 µM in the assay with TK-10 renal.
Regarding `CSS(C)(=O)=O`, the TGI in the assay with SK-MEL-2 melanoma is 60.2 µM; in the assay on M14 melanoma it was 74.7 µM; in the assay with SK-MEL-28 melanoma, 48 µM; in the assay with LOX IMVI melanoma it was > 100 µM; in the assay with NCI-H460 lung it was > 100 µM; in the assay with KM12 colon, 87.1 µM. For the same compound, the TGI in the assay with IGROV1 ovarian was 45.2 µM; in the assay with OVCAR-8 ovarian it was 68.8 µM; in the assay on SNB-19 CNS, > 100 µM; in the assay on TK-10 renal, 46 µM.
In the case of `COc1ccc2c(c1)C=C(C(C)(C)C)NS2(=O)=O`, the TGI in the assay with SK-MEL-2 melanoma, with M14 melanoma, in the assay with SK-MEL-28 melanoma, in the assay with SK-OV-3 ovarian, in the assay on LOX IMVI melanoma and with NCI-H460 lung was > 100 µM in each case. Also, the TGI in the assay with KM12 colon, in the assay with IGROV1 ovarian, in the assay with OVCAR-8 ovarian, in the assay on SNB-19 CNS and with TK-10 renal was > 100 µM each time.
Regarding `CC(c1ccccc1)C(O)S(=O)(=O)O` (stereo not given), the TGI with SK-MEL-2 melanoma, with M14 melanoma, in the assay on SK-MEL-28 melanoma, in the assay with SK-OV-3 ovarian, in the assay on LOX IMVI melanoma and in the assay with NCI-H460 lung was > 100 µM each time. The TGI with KM12 colon, in the assay with IGROV1 ovarian, in the assay with OVCAR-8 ovarian, in the assay with SNB-19 CNS and with TK-10 renal was > 100 µM each time.
In the case of `C=CCOC1OC(CS(=O)(=O)O)C(OC(C)=O)C(OC(C)=O)C1OC(C)=O` (stereo not given), the TGI with SK-MEL-2 melanoma, with M14 melanoma, in the assay on SK-MEL-28 melanoma, in the assay with SK-OV-3 ovarian, in the assay with LOX IMVI melanoma and in the assay with NCI-H460 lung was > 100 µM in each case. The TGI in the assay with KM12 colon, in the assay with IGROV1 ovarian, with OVCAR-8 ovarian, in the assay with SNB-19 CNS and in the assay with TK-10 renal was > 100 µM in each case.
Regarding `COc1cc2c3cc1Oc1c(OC)c(OC)cc4c1C(Cc1ccc(O)c(c1)-c1cc(ccc1OC)CC3N(C)CC2)N(C)CC4` (stereo not given), the TGI in the assay with SK-MEL-2 melanoma is 43 µM; in the assay with M14 melanoma, 15.5 µM; in the assay on SK-MEL-28 melanoma, 82.7 µM; with SK-OV-3 ovarian it was > 100 µM; with LOX IMVI melanoma, 83 µM; with NCI-H460 lung it was 51.2 µM. The TGI with KM12 colon is 37.6 µM; in the assay with IGROV1 ovarian, 63.7 µM; in the assay on OVCAR-8 ovarian, 46.3 µM; in the assay on SNB-19 CNS it was 56.1 µM; in the assay on TK-10 renal, > 100 µM.
`COc1ccc(-c2c3c(nc4[nH]c(=S)[nH]c(=S)c24)CCCC3)cc1OC`: the TGI in the assay with M14 melanoma is > 100 µM; in the assay with SK-MEL-28 melanoma, 70.7 µM; in the assay with SK-OV-3 ovarian, > 100 µM; with LOX IMVI melanoma, 45.3 µM; with NCI-H460 lung it was 42.9 µM; in the assay on KM12 colon, > 100 µM. Also, the TGI with IGROV1 ovarian is 76.2 µM; with OVCAR-8 ovarian, 74.6 µM; in the assay on SNB-19 CNS, > 100 µM; with TK-10 renal, > 100 µM.
As for `c1ccc(N2N=C3N(c4ccccc4)C2N3c2ccccc2)cc1`, the TGI in the assay on SK-MEL-2 melanoma is 73 µM; with M14 melanoma, 47.6 µM; in the assay with SK-MEL-28 melanoma, 43.4 µM; in the assay on SK-OV-3 ovarian it was > 100 µM; in the assay with LOX IMVI melanoma, 62.4 µM; in the assay on NCI-H460 lung it was > 100 µM. The TGI in the assay on KM12 colon, in the assay with IGROV1 ovarian, in the assay on OVCAR-8 ovarian, with SNB-19 CNS and in the assay on TK-10 renal was > 100 µM throughout.
Turning to `COc1ccc(OCC(C)(C)O)cc1`, the TGI in the assay on SK-MEL-2 melanoma, with SK-MEL-28 melanoma, in the assay with SK-OV-3 ovarian, with LOX IMVI melanoma, in the assay with NCI-H460 lung and in the assay on KM12 colon was > 100 µM in each case. For the same compound, the TGI in the assay on IGROV1 ovarian, in the assay with OVCAR-8 ovarian and in the assay with SNB-19 CNS was > 100 µM in each case.
In the case of `CC(C)(C)C(=O)CC(=O)C(F)(F)C(F)(F)C(F)(F)F.[Ag]`, the TGI amounted to 33.6 µM with SK-MEL-2 melanoma; 31.1 µM in the assay with M14 melanoma; 28.3 µM in the assay with SK-MEL-28 melanoma; 44.5 µM in the assay on SK-OV-3 ovarian; 14.5 µM with LOX IMVI melanoma; 46.9 µM with NCI-H460 lung. The TGI with KM12 colon stood at 50.8 µM; in the assay on IGROV1 ovarian, 26.5 µM; with OVCAR-8 ovarian, 49.4 µM; in the assay with SNB-19 CNS, 43.9 µM; in the assay with TK-10 renal, 32.1 µM.
With `COc1ccc2c(c1)c(=O)c1c(NCCCN(C)C)ccc3ncn2c31`, the TGI with SK-MEL-2 melanoma is 22.1 µM; with M14 melanoma, 12.9 µM; in the assay on SK-MEL-28 melanoma, 26.4 µM; in the assay with SK-OV-3 ovarian, 22.1 µM; with LOX IMVI melanoma, 4.86 µM; with NCI-H460 lung it was 8.03 µM. Also, the TGI came to 15.5 µM in the assay with KM12 colon; 21.2 µM in the assay on IGROV1 ovarian; 9.4 µM in the assay on OVCAR-8 ovarian; 20.5 µM with SNB-19 CNS; 20.1 µM with TK-10 renal.
